Data as given in a melting point compilation (Tetko et al.; mined from patent text by program, amines drawn as free bases though some values may be those of a salt).

First: Cc1c(C=NO)c2ccccc2n1-c1ccc(OCc2ccccc2)c(F)c1
Second: CS(=O)(=O)c1ccc(-c2[nH]c3ccccc3c2-c2ccccc2)cc1
The melting point of the first is lower: 167 to 168 °C for the first, 221 to 222 °C for the second.

First: Cc1c(F)c(N)nc(-n2cc(C(=O)O)c(=O)c3cc(F)c(F)c(Cl)c32)c1F
Second: O=C(O)Cc1c(C(=O)c2ccc(Cl)cn2)[nH]c2ccc(Cl)cc12
The melting point of the first is lower: 253 to 257 °C for the first, 259 to 260 °C for the second.

First: CNC(=O)Oc1ccc2c(N(C)CCN3CCOCC3)noc2c1
Second: CCN1CCC(C(=O)NO)(S(=O)(=O)c2ccc(Oc3ccc(Cl)cc3)cc2)CC1
The melting point of the first is lower: 94 to 95 °C for the first, 158 °C for the second.

Compared with `CC(C)(C)c1cc(SC2CCN(S(=O)(=O)c3ncc(CO)[nH]3)CC2)cc(C(C)(C)C)c1O`, `CC(C)(C)c1cc(-c2ccc(NC(=O)[C@H]3CCCC[C@H]3C(=O)O)cc2)cc(C(C)(C)C)c1O` (relative stereo) is higher in melting point: 122 to 123 °C for the first, 217 to 220 °C for the second.

First: CC(C)Oc1ccc(NC(=S)NCc2ccsc2)cc1
Second: COc1ccc(O)c(C(=O)Nc2ccccc2C(=O)NCCCC(=O)O)c1
The melting point of the first is lower: 80.5 to 81.5 °C for the first, 191 to 193 °C for the second.

Compared with `CCOC(=O)c1cc2c(nc1COc1ccc(C(=O)O)cc1)CCCCC2`, `COc1cc(C(=O)O)ccc1Cn1cnc2ccc(NC(=O)OC3CCCC3)cc21` is higher in melting point: 135 to 136 °C for the first, 241 to 242 °C for the second.

First: CC1(C)OC(=O)c2c(cccc2-c2ccccn2)O1
Second: CSc1cc(C)nc(SC)c1NC(=O)C=CC1=C(c2ccccc2)c2ccccc2OC1
The melting point of the first is lower: 142 °C for the first, 225 to 227 °C for the second.

First: Cc1ccc(C(=O)NCCO)cc1-n1c(C)cc(OCc2ccccc2CNC(=O)Nc2cc(C(C)(C)C)nn2-c2cccc(OCCO)c2)c(Cl)c1=O
Second: Nc1ncnc2c1c(-c1ccc(OCc3ccccc3)cc1)cn2-c1cccc(OCCCl)c1
The melting point of the first is higher: 162 to 163 °C for the first, 146 to 148 °C for the second.

First: CCOC(=O)c1ccc(N2CCC(NC[C@H](O)COc3ccc(O)c(S(C)(=O)=O)c3)CC2)cc1
Second: Cc1cc(C)c(Nc2nc(C)ccc2S(=O)(=O)c2ccc(OCCCO)cc2)c(C)c1
The melting point of the first is lower: 83 to 85 °C for the first, 152 to 153 °C for the second.

Compared with `C=CC(O)C1OC(C)(C)OC1C(O)CO` (centres undefined), `CCCN(CCC)C(N)=C(C#N)C(N)=S` is higher in melting point: 73 to 74 °C for the first, 141 to 144 °C for the second.

Compared with `COc1ccc(N2CCN(c3c(C)c(C)c4c(c3-c3ccoc3)CC(C)(C)O4)CC2)cc1`, `CN(C(=O)c1ccnc(Cl)c1)c1ccccc1N1CCN(C(=O)OC(C)(C)C)CC1` is lower in melting point: 192 to 195 °C for the first, 59 to 61 °C for the second.

First: CSCc1cn(C)c2cc(F)ccc2c1=O
Second: CC(C)(C)N1C(=O)c2cnc(CCl)cc2C1=O
The melting point of the first is higher: 167 to 169 °C for the first, 62 to 64 °C for the second.

Compared with `CCOC(=O)C1=C(C)OC(N)=C(C(=O)OCC)C1c1cccc([N+](=O)[O-])c1` (centres undefined), `CCOC(=O)CN(C)C(=O)c1ccccc1C(=O)c1cc(C(C)(C)C)c(O)c(C(C)(C)C)c1` is lower in melting point: 161 °C for the first, 98 to 99 °C for the second.

First: CCCCCc1c(O)ccc2c1OCCC2=O
Second: Cc1cc(O)nc(CCCCOc2nccc(NC(N)=NCC(F)(F)F)n2)n1
The melting point of the first is lower: 132 to 134 °C for the first, 191 to 193 °C for the second.

Compared with `CCCCNCc1cccc(OCCCNc2nc(N)nn2C)c1`, `CCCCc1ncc(/C=C2\C(=O)N(CC(=O)OCC)c3c(OC)cccc32)n1Cc1ccc(C(=O)OC)cc1` is higher in melting point: 99.5 to 101 °C for the first, 157 to 158 °C for the second.

First: COc1ccccc1Oc1coc(C(=O)O)cc1=O
Second: COc1cc(C(=O)O)ccc1OCCCCCOc1ccc(C#N)cc1
The melting point of the first is higher: 202 to 203 °C for the first, 159 to 161 °C for the second.

First: Cc1nc(NC(=O)CCCc2ccccc2)sc1C(=O)NCc1ccccc1
Second: O=C(O)CCC(=NOCc1ccc(OCc2coc(-c3ccccc3)n2)cc1)c1ccccc1
The melting point of the first is lower: 45 to 46 °C for the first, 144 to 145 °C for the second.

Compared with `CCc1cc(SCCc2cccc3cn(-c4ccc(C(F)(F)F)cc4)nc23)ccc1OCC(=O)O`, `c1cc(OCc2ccc3ccccc3n2)cc(OCc2ccccc2-c2nnn[nH]2)c1` is higher in melting point: 115 to 117 °C for the first, 166 to 170 °C for the second.

First: CN1CCC(C2c3cccc4c3N(CC4)c3ccccc3N2C(=O)OCC(Cl)(Cl)Cl)CC1 (centres undefined)
Second: COc1ccc(N(Cc2ccc(N(C)C)cc2)C(=O)C2CCCc3c(O)cccc32)cc1 (centres undefined)
The melting point of the first is lower: 160 to 162 °C for the first, 195 to 197 °C for the second.

First: CCCN(CC)c1cc(C)nc(Oc2c(C)cc(Cl)cc2C)c1C
Second: COc1c(C)c(Cc2ccc(Cl)cc2)c(OC)c2ccccc12
The melting point of the first is lower: 74 to 76 °C for the first, 101 to 102 °C for the second.

Compared with `O=Cc1cccc(C=Cc2ccc3ccccc3n2)c1`, `COc1ccc(-c2cc(=S)[nH]nc2-c2ccc(OC)c(F)c2)cc1` is higher in melting point: 78.6 to 80.8 °C for the first, 222 to 223 °C for the second.

First: CNC(=O)N1CCc2[nH]cnc2C1c1cccs1 (centres undefined)
Second: COC(=O)c1cc(I)cc2c(=O)cc[nH]c12
The melting point of the first is higher: 230 °C for the first, 75 to 77 °C for the second.

First: O=[N+]([O-])c1nccn1CC(O)CC1C2CCCN21 (centres undefined)
Second: N#CC(C#N)=NC1=C(N2CCOCC2)CCC1
The melting point of the first is lower: 81 to 81.5 °C for the first, 157 to 158 °C for the second.

First: Cc1ccc(C2=NC(C)(C(C)C)C(=S)N2)cc1 (centres undefined)
Second: COc1ccccc1-n1c(-c2ccc(C=C(C#N)C#N)s2)ccc1-c1ccc(C(C#N)=C(C#N)C#N)s1
The melting point of the first is lower: 167 to 170 °C for the first, > 300 °C for the second.

Work on `COC(=O)c1cc(Cl)cc(CC=O)c1O` yielded a melting point of 49 to 59 °C.
